Data taken from patent publication US7981890B2, “Phthalazinone derivatives” (AstraZeneca AB, priority 2007, dated 2011).
≈ marks a conversion by molar mass, not a printed value.

What was measured:
[1] = system: HeLa cells; assay: Potentiation Factor (PF50), MMS growth inhibition, SRB assay; type: cell-based; conditions: with MMS, ratio of IC50 control / IC50 with PARP inhibitor; for mean PF50 at 30 nM: compound at 30 nM; for mean PF50 at 200 nM: compound at 200 nM
Protocol: The Potentiation Factor (PF50) for compounds is calculated as a ratio of the IC50 of control cell growth divided by the IC50 of cell growth+PARP inhibitor. Growth inhibition curves for both control and compound treated cells are in the presence of the alkylating agent methyl methanesulfonate (MMS). […] The concentrations of MMS were over a range from 0 to 10 μg/ml.
Cell growth was assessed using the sulforhodamine B (SRB) assay (Skehan, P., et al., (1990) New calorimetric cytotoxicity assay for anticancer-drug screening. J. Natl. Cancer Inst. 82, 1107-1112). 2,000 HeLa cells were seeded into each well of a flat-bottomed 96-well microtiter plate in a volume of 100 μl and incubated for 6 hours at 37° C. […] Cells were allowed to grow for a further 1 hour before the addition of MMS at a range of concentrations (typically 0, 1, 2, 3, 5, 7 and 10 μg/ml) to either untreated cells or PARP inhibitor treated cells. Cells treated with PARP inhibitor alone were used to assess the growth inhibition by the PARP inhibitor.
Cells were left for a further 16 hours before replacing the media and allowing the cells to grow for a further 72 hours at 37° C. The media was then removed and the cells fixed with 100 μl of ice cold 10% (w/v) trichloroacetic acid. The plates were incubated at 4° C. for 20 minutes and then washed four times with water. Each well of cells was then stained with 100 μl of 0.4% (w/v) SRB in 1% acetic acid for 20 minutes before washing four times with 1% acetic acid. Plates were then dried for 2 hours at room temperature. The dye from the stained cells was solubilized by the addition of 100 μl of 10 mM Tris Base into each well. Plates were gently shaken and left at room temperature for 30 minutes before measuring the optical density at 564 nm on a Microquant microtiter plate reader.

[2] = Solubility assay; type: physicochemical; conditions: thermodynamic from solid; water; 20 hours at room temperature
Protocol: A typical assay that may be used to assess the solubility of the compounds of the present invention is as follows. The solubility of the compound is assessed in water and phosphate-buffered saline (pbs) at pH 7.4. The samples are all allowed to equilibrate in the solvent (with shaking) for 20 hours at room temperature. After that period, the samples will be visually examined to determine the presence/absence of un-dissolved solid. The samples will be centrifuged or filtered as necessary to remove insoluble material, and the solution analysed to determine solubility of the DS, diluting both aqueous and DMSO samples to a similar concentration with DMSO. The area of the peak obtained by HPLC (using the diode array detector) from the sample will be compared to the area of the peak from the DMSO solution (diluted to the same concentration as the sample) and quantified taking into account the weight of sample taken for initial dissolution. The assumption is made that the sample will be completely soluble in DMSO at the levels used for testing.
Comparing the ratio of the peak areas, and knowing the concentration of the original samples, the solubility may be calculated.
About 1 mg of the sample is weighed accurately into a 4-ml glass vial and exactly 1.0 ml of water, aqueous buffer or DMSO, is added to it by pipette. Each vial is ultrasonicated for up to 2 minutes to assist solublisation of the solid. The samples are retained at room temperature for 20 hours, shaking on an orbital shaker. The vials are examined after this period to determine the presence/absence of un-dissolved solid. The samples should be centrifuged, or filtered through a 0.45 μm filter, to remove insoluble material if necessary, and the filtrate analysed to determine concentration of the compound in solution, after diluting all samples as appropriate with DMSO. 20 μl is injected onto the HPLC using the method shown below, injecting all samples in duplicate. The maximum solubility that can be determined using this method is nominally 1.0 mg/ml, the weight taken divided by the volume of solvent used. […]

[3] = system: BRAC2 complemented (VC8+BAC) cells; assay: VC8 assay, growth inhibition (SRB), complemented cells; type: cell-based, hamster; conditions: BRCA2 complemented VC8+BAC cells
Protocol: (§1) In order to assess the growth inhibitory action of compounds on BRCA2 deficient (VC8−hamster line) and BRAC2 complemented (VC8+BAC) cells the following assay was used to determine GI50 values.
500 VC8 cells or 200 VC8+BAC cells were seeded into each well of a flat-bottomed 96-well microtiter plate in a volume of 90 μl and incubated for 4-6 hours at 37° C. […]
(§2) Cells were left for a further 48 hours before replacing the media with fresh media (no compound) and allowing the cells to grow for a total of 120 hours at 37° C. The medium was then removed and the cells fixed with 50 μl of ice cold 10% (w/v) tricholoracetic acid. The plates were incubated at 4° C. for 30 minutes and then washed three times with water. Each well of cells was then stained with 50 μl of 0.4% (w/v) sulforhodamine B (SRB) in 1% acetic acid for 15 minutes before washing three times with 1% acetic acid. Plates were then dried for 2 hours at room temperature. The dye from the stained cells was solubilised by the addition of 100 μl of 10 mM Tris Base into each well. Plates were then shaken and the optical density at 564 nm was measured on a Microquant microtiter plate reader.
The GI50 is calculated as the μM concentration of compound required to inhibit 50% of cell growth.

[4] = system: BRCA2 deficient (VC8) cells; assay: VC8 assay, growth inhibition (SRB); type: cell-based, hamster; conditions: V-C8
Protocol: as §1
500 VC8 cells or 200 VC8+BAC cells were seeded into each well of a flat-bottomed 96-well microtiter plate in a volume of 90 μl and incubated for 4-6 hours at 37° C. All compounds were diluted in media (Dulbecco's Modified Eagle's Medium (DMEM), 10% Fetal Bovine Serum, Penicillin/Sretptomycin/Glutamine) and added to the cells at final concentrations of between 0 and 300 nM.
as §2, with “reader. […]” for “reader.”

SMILES	mean PF50 at 30 nM [1]	solubility at 20 h [2]	mean PF50 at 200 nM [1]	GI50 [3]	GI50 [4]
C[C@@H]1NC(=O)N(c2cc(Cc3n[nH]c(=O)c4c3CCCC4)ccc2F)C1=O (single isomer, unassigned) [Compound 13a]	25				
C[C@H]1NC(=O)N(c2cc(Cc3n[nH]c(=O)c4c3CCCC4)ccc2F)C1=O (single isomer, unassigned) [Compound 13b]	9				
CC1NC(=O)N(c2cccc(Cc3n[nH]c(=O)c4c3CCCC4)c2)C1=O (stereo not shown) [Compound 6, 5-Methyl-3-[3-(4-oxo-3,4,5,6,7,8-hexahydro-phthalazin-1-ylmethyl)-phenyl]-imidazolidine-2,4-dione]		500 µg/mL (≈ 1420 µM)	20		
CC1NC(=O)N(c2cc(Cc3n[nH]c(=O)c4c3CCCC4)ccc2F)C1=O (stereo not shown) [Compound 13, 3-[2-Fluoro-5-(4-oxo-3,4,5,6,7,8-hexahydro-phthalazin-1-ylmethyl)-phenyl]-5-methylimidazolidine-2,4-dione]		900 µg/mL (≈ 2430 µM)	57	29 µM	0.0105 µM
CC1(C)NC(=O)N(c2cccc(Cc3n[nH]c(=O)c4c3CCCC4)c2)C1=O [Compound 15, 5,5-dimethyl-3-[3-[(4-oxo-5,6,7,8-tetrahydro-3H-phthalazin-1-yl)methyl]phenyl]imidazolidine-2,4-dione]		105 µg/mL (≈ 287 µM)	2		
